Our source for the LD50 values is US4716171A (Etablissements Nativelle S.A., priority 1981, dated 1987).

The nature of data set [1]: LD50 in mice (Lichfield and Wilcoxon method). Particulars: mouse, in vivo, mice, read-out: LD50. The text has this:
(§1) For example, the results obtained with 3S-hydroxy-10,11-dihydroquinidine in the form of the hydrochloride salt are shown in Table 1 below.

Data set [2] can be described thus: LD50 in rats (Lichfield and Wilcoxon method). To be noted: rat, in vivo, male, oral.
Text: as §1

As a reminder, the LD50 is the dose at which mortality reaches 50%. As to `CC[C@@]1(O)CN2CC[C@H]1C[C@@H]2[C@@H](O)c1ccnc2ccc(OC)cc12` [3S-hydroxy-10,11-dihydroquinidine], the LD50 in data set [1] (ip, female, IP) came to 180 mg/kg; in data set [1] (ip, male, IP), 280 mg/kg; in data set [1] (iv, female, IV), 105 mg/kg; in data set [1] (iv, male, IV), 120 mg/kg; in data set [1] (po, female, oral) it was 900 mg/kg; in data set [1] (po, male, oral), 975 mg/kg. In data set [2], this compound displayed an LD50 of 640 mg/kg.
